Experimental data taken from patent US10336710B2, “Benzimidazole derivatives, preparation method therefor, and applications thereof” (BEIJING PHARMACEUTICAL GROUP CO., LTD., priority 2015, dated 2019).

Tests used:
[1] = test system: hyperuricemia rat models; assay: Therapeutic effect on potassium oxonate-induced hyperuricemia rat models (blood uric acid); type: in vivo, SD rats; details: for Blood uric acid concentration before drug administration: baseline, rat serum; for Blood uric acid concentration before drug administration / Blood uric acid concentration 7 days after drug administration: mean ± SD; for Blood uric acid concentration 7 days after drug administration: potassium oxonate 250 mg/kg/d i.p.; for Blood uric acid increase: 7 days vs before drug administration; for Effect on increment of blood uric acid levels compared with model control group (in words): 80 mg/kg/day and 40 mg/kg/day, potassium oxonate rat model
Procedure: Experimental animals: SD rats (SPF level), Laboratory Animal Center, Chinese Academy of Military Medical Sciences.
Rats weighing 200±20 g were fasted for 12 hours after a 1-week adaptive feeding period and were intraperitoneally injected with potassium oxonate (250 mg/kg/d) once daily for 7 consecutive days for modeling. The rats were closely observed after injection. […]
Blood samples were collected from the retro-orbital venous plexus before the preparation of the rat models and after administering the test compounds for 7 days. Serum was separated from the blood samples. Urine was collected using a metabolic cage for 24 hours and the supernatant was collected after centrifuge. Blood uric acid levels were measured using an automatic biochemical analyzer. The average increment in blood uric acid concentration was calculated for each group of animals.
SPSS 13.0 statistical software package was used to analyze the data. The data in each group were expressed as mean plus or minus standard deviation (x±s). The data were compared using a comparative t-test between groups, where p<0.05 was considered as statistically significant.

[2] = biological target: human URAT1 (Homo sapiens (Human), UniProt Q96S37); assay: 14C-uric acid uptake inhibition in URAT1 high-expression 293/hURAT1 cells; type: cell-based; details: 50 μM 14C-uric acid, 5 minutes at 37° C., read-out: URAT1 IC50 activity classification
Chain of human URAT1 (Q96S37 whole entry): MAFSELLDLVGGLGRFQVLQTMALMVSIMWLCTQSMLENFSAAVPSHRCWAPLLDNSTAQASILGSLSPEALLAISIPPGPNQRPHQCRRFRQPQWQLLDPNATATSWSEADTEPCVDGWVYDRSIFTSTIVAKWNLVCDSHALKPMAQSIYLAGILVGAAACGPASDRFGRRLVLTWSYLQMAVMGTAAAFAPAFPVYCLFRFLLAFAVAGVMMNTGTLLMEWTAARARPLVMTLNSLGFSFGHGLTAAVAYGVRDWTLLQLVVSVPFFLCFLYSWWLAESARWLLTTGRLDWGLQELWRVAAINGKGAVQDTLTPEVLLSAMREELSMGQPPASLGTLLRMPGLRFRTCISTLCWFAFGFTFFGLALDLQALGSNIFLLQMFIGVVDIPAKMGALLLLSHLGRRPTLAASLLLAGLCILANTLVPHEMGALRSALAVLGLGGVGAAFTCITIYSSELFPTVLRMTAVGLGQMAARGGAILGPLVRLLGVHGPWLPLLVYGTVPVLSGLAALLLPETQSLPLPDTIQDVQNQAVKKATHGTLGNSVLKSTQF
Procedure: The transfected cells were assayed for ability to uptake uric acid labelled with radioisotope. The test compounds were then evaluated for their activity by determining of their ability to block uric acid uptake by the transfected cells.
293/h URAT1 cells were plated at a density of 40000 cells/well in poly D-lysine-coated 96-well plates (BD, 356461) and incubated overnight. The medium was removed and a pre-warmed reaction buffer was added (125 mM sodium gluconate, 4.8 mM potassium gluconate, 1.3 mM calcium gluconate, 1.2 mM potassium dihydrogen phosphate, 1.2 mM magnesium sulfate, 5.6 mM glucose, 25 mM HEPES, pH 7.4) before incubating at 37° C. for 10 minutes. The buffer was removed and another reaction buffer containing 50 μM ^14C-uric acid (American Radiolabeled Chemicals, ARC0513) and the test compounds or solvent control was added before incubating at 37° C. for 5 minutes. The buffer was removed, and the plates were washed 3 times with the buffer. Cells were lysed by adding 100 mM NaOH for 20 minutes. Cell lysates were transferred to Isoplate-96 well plates (PerkinElmer, 6005040), mixed with liquid scintillators and were counted in a MicroBeta^2 (PerkinElmer) counter.
The test compounds were all dissolved in DMSO, and DMSO of the same concentration without the test compounds was used as a solvent control. […] The IC50 of each compound was calculated using the percentage of inhibition at different concentrations.

[3] = 40 mg/kg/d intragastric once daily for 7 days
[4] = 80 mg/kg/d intragastric once daily for 7 days

Row | IC50 [2] [µM] | SMILES | Blood uric acid concentration before drug administration ([1]; 40 mg/kg/d group) [µmol/L] | Blood uric acid concentration 7 days after drug administration [1, 3] [µmol/L] | Blood uric acid increase ([1]; 40 mg/kg/d) [%] | Blood uric acid concentration before drug administration ([1]; 80 mg/kg/d group) [µmol/L] | Blood uric acid concentration 7 days after drug administration [1, 4] [µmol/L] | Blood uric acid increase ([1]; 80 mg/kg/d) [%] | Effect on increment of blood uric acid levels compared with model control group (in words) [1]
1 | 15 to 30 | O=C(O)C(Sc1nc2ccccc2n1-c1ccc(C2CC2)c2ccccc12)c1ccc(Cl)cc1 (stereo not drawn) [Example I6, 2-(4-chlorophenyl)-2-[[1-(4-cyclopropylnaphth-1-yl)-1H-benzo[d]imidazol-2-yl]thio]acetic acid] | – | – | – | – | – | – | –
2 | 30 to 100 | CC(C)(Sc1nc2ccccc2n1-c1ccc([N+](=O)[O-])cc1F)C(=O)O [Example I7, 2-methyl-2-[[1-(4-nitro-2-fluorophenyl)-1H-benzo[d]imidazol-2-yl]thio]propanoic acid] | – | – | – | – | – | – | –
3 | 30 to 100 | CC(C)(Sc1nc2ccccc2n1-c1ccccc1)C(=O)O [Example I8, 2-methyl-2-[(1-phenyl-1H-benzo[d]imidazol-2-yl)thio]propanoic acid] | – | – | – | – | – | – | –
4 | 15 to 30 | CC(C)(Sc1nc2ccccc2n1-c1ccc(Br)cc1F)C(=O)O [Example I11, 2-methyl-2-[[1-(4-bromo-2-fluorophenyl)-1H-benzo[d]imidazol-2-yl]thio]propanoic acid] | – | – | – | – | – | – | –
5 | 15 to 30 | CC(C)(Sc1nc2ccccc2n1-c1ccc(Cl)cc1F)C(=O)O [Example I12, 2-methyl-2-[[1-(4-chloro-2-fluorophenyl)-1H-benzo[d]imidazol-2-yl]thio]propanoic acid] | – | – | – | – | – | – | –
6 | 15 to 30 | CC(C)(Sc1nc2ccccc2n1-c1ccccc1F)C(=O)O [Example I13, 2-methyl-2-[[1-(2-fluorophenyl)-1H-benzo[d]imidazol-2-yl]thio]propanoic acid] | – | – | – | – | – | – | –

The remaining lines, values behind:

Row | SMILES | IC50 [2] [µM] | Blood uric acid concentration before drug administration ([1]; 40 mg/kg/d group) [µmol/L] | Blood uric acid concentration 7 days after drug administration [1, 3] [µmol/L] | Blood uric acid increase ([1]; 40 mg/kg/d) [%] | Blood uric acid concentration before drug administration ([1]; 80 mg/kg/d group) [µmol/L] | Blood uric acid concentration 7 days after drug administration [1, 4] [µmol/L] | Blood uric acid increase ([1]; 80 mg/kg/d) [%] | Effect on increment of blood uric acid levels compared with model control group (in words) [1]
7 | COc1ccc2c(c1)nc(SC(C)(C)C(=O)O)n2-c1ccc(C#N)c2ccccc12 [Example I1, 2-methyl-2-[[5-methoxy-1-(4-cyanonaphth-1-yl)-1H-benzo[d]imidazol-2-yl]thio]propanoic acid] | 1 to 15 | 169.61 ± 19.57 | 175.79 ± 16.54 | 3.64 | 175.83 ± 16.39 | 175.95 ± 15.43 | 0.07 | could significantly reduce the increment of blood uric acid levels
8 | CC(C)(Sc1nc2ccccc2n1-c1ccc(C#N)c2ccccc12)C(=O)O [Example I2, 2-methyl-2-[[1-(4-cyanonaphth-1-yl)-1H-benzo[d]imidazol-2-yl]thio]propanoic acid] | 1 to 15 | 156.38 ± 12.62 | 172.86 ± 9.37 | 10.54 | 150.86 ± 20.46 | 161.81 ± 8.38 | 7.26 | could significantly reduce the increment of blood uric acid levels
9 | CC(C)(Sc1nc2cc(Br)ccc2n1-c1ccc(C#N)c2ccccc12)C(=O)O [Example I3, 2-methyl-2-[[5-bromo-1-(4-cyanonaphth-1-yl)-1H-benzo[d]imidazol-2-yl]thio]propanoic acid] | 1 to 15 | 169.21 ± 14.24 | 180.38 ± 14.36 | 6.60 | 181.25 ± 24.86 | 159.40 ± 13.99 | −12.06 | could significantly reduce the increment of blood uric acid levels
10 | CC(C)(Sc1nc2ccccc2n1-c1ccc(C#N)cc1)C(=O)O [Example I4, 2-methyl-2-[[1-(4-cyanophenyl)-1H-benzo[d]imidazol-2-yl]thio]propanoic acid] | 1 to 15 | 142.57 ± 6.43 | 173.05 ± 17.24 | 21.38 | 158.38 ± 13.67 | 177.24 ± 5.77 | 11.90 | –
11 | CC(C)(Sc1nc2ccccc2n1-c1ccc(C2CC2)c2ccccc12)C(=O)O [Example I5, 2-methyl-2-[[1-(4-cyclopropylnaphth-1-yl)-1H-benzo[d]imidazol-2-yl]thio]propanoic acid] | 15 to 30 | – | – | – | – | – | – | –
12 | O=C(O)CSc1nnc(Br)n1-c1ccc(C2CC2)c2ccccc12 [Lesinurad, reference compound] | – | 156.02 ± 8.69 | 172.57 ± 25.43 | 10.61 | 161.20 ± 22.07 | 166.85 ± 12.76 | 3.50 | could reduce the increment of blood uric acid levels
